# What was measured:
# E. coli GAR Tfase = E. coli GAR Tfase (Escherichia coli, UniProt P08179); experiment: E. coli GAR Tfase inhibition; format: biochemical; details: for fold less potent than the corresponding monoglutamate: α-pentaglutamate vs monoglutamate (25 vs 3, 26 vs 15)
# Procedure: (§1) GAR and AICAR Tfase inhibition studies were conducted as previously detailed^28 with the exception that the AICAR Tfase inhibition was conducted in the absence of 5 mM β-mercaptoethanol and screened with 10 nM enzyme, […] inhibitor and […] of cofactor. The DHFR inhibition study was conducted as previously detailed with 10 nM enzyme, […] H2F, […] NADPH and […] inhibitor.
# The Ki values for the folate analogues were measured as previously described (Boger, D. L., et al., Bioorg. Med. Chem. 1997, 5, 1817-1830). Briefly, each compound was dissolved in dimethyl sulfoxide (DMSO) and then diluted in assay buffer. […] Thus, all assays were conducted by mixing 10 μM 10-formyl-5,8-dideazafolate (fDDF), 20 μM inhibitor in total volume of 1 mL buffer (0.1 M HEPES, pH 7.5) at 26° C., and the reaction initiated by the addition of 76 nM E. coli or human GAR Tfase. The assay monitors the deformylation of fDDF (Δε=18.9 mM^−1 cm^−1 at 295 nm) resulting from the transfer of the formyl group to β-GAR.
# [1] = molecular target: T1, recombinant human GAR Tfase (rhGAR Tfase) (Homo sapiens, UniProt P22102); experiment: Recombinant human GAR Tfase inhibition; format: biochemical; details: for potency increase of γ-pentaglutamate over monoglutamate: 21 vs 3, 22 vs 15
# T1 construct: includes residues 808-1010 from the human trifunctional enzyme (purD-purM-purN); hexa-histidine (C); made in house; host or cells: E. coli BL21 (DE3) Gold, pet22b vector
# T1 sequence (P22102 808-1010): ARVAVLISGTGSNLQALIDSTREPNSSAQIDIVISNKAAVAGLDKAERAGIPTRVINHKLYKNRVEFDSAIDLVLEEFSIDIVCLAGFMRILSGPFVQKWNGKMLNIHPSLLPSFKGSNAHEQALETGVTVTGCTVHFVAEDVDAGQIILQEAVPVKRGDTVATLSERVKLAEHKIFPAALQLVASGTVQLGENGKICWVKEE
# Procedure: The gene was subcloned into the pet22b vector using the Ndel/Xhol cloning site with ahexa-histidine tag at the C-terminus. The plasmid was transformed into the E. coli expression strain BL21 (DE3) Gold. […] The purified protein was used in the inhibition assays, cytotoxic assays and crystallization experiments.
# Briefly, each compound was dissolved in dimethyl sulfoxide (DMSO) and then diluted in assay buffer.
# human AICAR Tfase = human AICAR Tfase (Homo sapiens, UniProt P31939); experiment: AICAR Tfase inhibition; format: biochemical; details: for fold enhanced binding affinity / more potent than the corresponding monoglutamate: 21 vs 3, 22 vs 15, 26 vs 15
# human AICAR Tfase, sequence (P31939 whole entry): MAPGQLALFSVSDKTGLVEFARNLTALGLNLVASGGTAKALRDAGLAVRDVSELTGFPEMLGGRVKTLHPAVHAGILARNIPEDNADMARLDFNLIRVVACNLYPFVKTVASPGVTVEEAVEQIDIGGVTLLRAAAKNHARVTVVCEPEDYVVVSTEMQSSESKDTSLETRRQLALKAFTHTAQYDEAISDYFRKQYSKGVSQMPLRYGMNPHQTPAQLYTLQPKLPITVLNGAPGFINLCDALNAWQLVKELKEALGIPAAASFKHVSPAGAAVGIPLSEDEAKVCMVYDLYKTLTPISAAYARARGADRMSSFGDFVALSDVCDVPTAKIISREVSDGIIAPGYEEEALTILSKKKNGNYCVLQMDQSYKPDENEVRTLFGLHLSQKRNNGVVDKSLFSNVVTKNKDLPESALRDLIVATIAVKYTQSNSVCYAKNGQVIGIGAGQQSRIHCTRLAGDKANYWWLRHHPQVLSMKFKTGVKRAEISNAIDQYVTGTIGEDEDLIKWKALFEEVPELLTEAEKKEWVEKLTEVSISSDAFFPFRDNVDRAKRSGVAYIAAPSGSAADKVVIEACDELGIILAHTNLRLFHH
# Procedure: as §1
# CCRF-CEM cell line = experiment: CCRF-CEM cytotoxic assay; format: cell-based, human
# Procedure: The cytotoxic activity of the compounds was measured using CCRF-CEM human leukemia cells, as described previously (Boger, D. L., et al., Bioorg. Med. Chem. 1997, 5, 1847-1852). Two mutant cell lines, CCRF-CEM/MTX and CCRF-CEM/FPGS^− were used to determine the dependence on the reduced folate active transport system and folylpolyglutamate synthetase (FPGS), respectively (Jansen, G., et al., Cancer Res. 1989, 49, 2455-2459).
# E. coli GAR Tfase, sequence (P08179 whole entry): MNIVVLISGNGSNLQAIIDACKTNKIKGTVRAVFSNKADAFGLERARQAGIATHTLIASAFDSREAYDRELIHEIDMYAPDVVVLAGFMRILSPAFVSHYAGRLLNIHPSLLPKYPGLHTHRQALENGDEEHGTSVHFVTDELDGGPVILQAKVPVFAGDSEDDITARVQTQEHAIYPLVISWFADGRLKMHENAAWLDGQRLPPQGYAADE
SMILES,inhibition of / binding affinity for E. coli GAR Tfase (in words) (E. coli GAR Tfase),potency increase of γ-pentaglutamate over monoglutamate [1],fold enhanced binding affinity / more potent than the corresponding monoglutamate (human AICAR Tfase) [fold],cytotoxic activity (in words) (CCRF-CEM cell line),fold less potent than the corresponding monoglutamate (E. coli GAR Tfase) [fold],other results
"Nc1nc(N)c(CCCC(C=O)c2ccc(C(=O)N[C@@H](CCC(=O)N[C@@H](CCC(=O)N[C@@H](CCC(=O)N[C@@H](CCC(=O)N[C@@H](CCC(=O)O)C(=O)O)C(=O)O)C(=O)O)C(=O)O)C(=O)O)cc2)c(=O)[nH]1 (stereo partly drawn) [Compound 21, N-{4-[5-(2,4-Diamino-6(1H)-pyrimidinon-5-yl)-1-formyl-but-2-yl]benzoyl}-L-γ-glutamyl-L-γ-glutamyl-L-γ-glutamyl-L-γ-glutamyl-L-γ-glutamic Acid]",only marginal enhanced binding affinity,did not enhance,4,little or no cytotoxic activity,–,–
"CN(C)N=CC(CCCc1c(N)nc(N)[nH]c1=O)c1ccc(C(=O)N[C@@H](CCC(=O)N[C@@H](CCC(=O)N[C@@H](CCC(=O)N[C@@H](CCC(=O)N[C@@H](CCC(=O)O)C(=O)O)C(=O)O)C(=O)O)C(=O)O)C(=O)O)cc1 (stereo partly drawn) [Compound 22, N{4-[5-(2,4-Diamino-6(1H)-pyrimidinon-5-yl)-1-(dimethylhydrazono)pent-2-yl]benzoyl}-L-γ-glutamyl-L-γ-glutamyl-L-γ-glutamyl-L-γ-glutamyl-L-γ-glutamic Acid]",only marginal enhanced binding affinity,5 fold,140,little or no cytotoxic activity,–,–
"Nc1nc(N)c(CCCC(C=O)c2ccc(C(=O)N[C@@H](CCC(=O)O)C(=O)N[C@@H](CCC(=O)O)C(=O)N[C@@H](CCC(=O)O)C(=O)N[C@@H](CCC(=O)O)C(=O)N[C@@H](CCC(=O)O)C(=O)O)cc2)c(=O)[nH]1 (stereo partly drawn) [Compound 25, N{4-[5-(2,4-Diamino-6(1H)-pyrimidinon-5-yl)-1-formyl-but-2-yl]benzoyl}-L-α-glutamyl-L-α-glutamyl-L-α-glutamyl-L-α-glutamyl-L-α-glutamic Acid]",–,–,–,little or no cytotoxic activity,3,fold less potent than the aldehyde monoglutamate 3 (human AICAR Tfase; 25 vs 3): 16 fold
"CN(C)N=CC(CCCc1c(N)nc(N)[nH]c1=O)c1ccc(C(=O)N[C@@H](CCC(=O)O)C(=O)N[C@@H](CCC(=O)O)C(=O)N[C@@H](CCC(=O)O)C(=O)N[C@@H](CCC(=O)O)C(=O)N[C@@H](CCC(=O)O)C(=O)O)cc1 (stereo partly drawn) [Compound 26, N{4-[5-(2,4-Diamino-6(1H)-pyrimidinon-5-yl)-1-(dimethylhydrazono)pent-2-yl]benzoyl}-L-α-glutamyl-L-α-glutamyl-L-α-glutamyl-L-α-glutamyl-L-α-glutamic Acid]",–,–,4,little or no cytotoxic activity,4,orders of magnitude less potent than the corresponding γ-pentaglutamate 22 (E. coli GAR Tfase; 26 vs 22): 1-2 orders of magnitude; orders of magnitude less potent than the corresponding γ-pentaglutamate 22 (human AICAR Tfase; 26 vs 22): 1-2 orders of magnitude
"Nc1nc(N)c(CCCC(C(=O)C(F)(F)F)c2ccc(C(=O)O)cc2)c(=O)[nH]1 (stereo not drawn) [Compound 111, 4-[4-(2,4-diamino-6-oxo-1,6-dihydropyrimidin-5-yl)-1-(2,2,2-trifluoro-acetyl)butyl]benzoic acid]",–,–,–,–,–,inhibition of GAR Tfase (in words) [1]: lack of inhibition
"Nc1nc(N)c(CCCCc2ccc(C(=O)N[C@@H](CCC(=O)O)C(=O)O)cc2)c(=O)[nH]1 [DDACTHF, reference compound]",–,–,–,–,–,"IC50 (CCRF-CEM cell line; Homo sapiens, purines absent in the media): 2700 nM"

# — US20070167377A1, “Inhibitors of glycinamide ribonucleotide transformylase” (priority 2002, published 2007)
